Measured values from patent US10653670B2, “Use of indole compounds for fat reduction and skin and soft tissue tightening” (Alevere Medical Corporation, priority 2013, dated 2020).
Entries after “also recorded” stand apart in the source; their conditions may differ.

What was measured:
dermal fibroblasts = format: cell-based; conditions: for Dermis, averaged ethidium numbers: kill rate (ethidium), same plate as adipocytes; for Dermis, relative kill rate rated against the adipocyte kill rate: percentage in brackets; for toxicity to dermis / dermal fibroblasts: Example 2, FIGS. 6-8
Method: (§1) The time and concentration dependent effects of drug substance on both cell viability and toxicity were evaluated using a two-color fluorescence assay that measures plasma membrane integrity and intracellular enzyme activity. Live cells are determined by the strong fluorescence of calcein AM upon enzymatic conversion. […] The ratio of ethidium to calcein fluorescence is an excellent measure of the relative amount of live and dead cells.
(§2) Initial screening was performed using a variety of cell viability and cytotoxicity assays, including Presto Blue® (Invitrogen, Grand Island, N.Y.), Alamar Blue® (Invitrogen, Grand Island, N.Y.), Cyto-Tox One® (Promega, Madison, Wis.), and Cell Titer Glo® (Promega, Madison, Wis.). […] An MTT terazolium assay was performed, as well as LDH and ATP based assays. […] The LIVE/DEAD® for mammalian cells assay was used. LIVE/DEAD® for mammalian cells assay is a calcein (live read)/ethidium bromide (dead) multiplex assay.
(§3) A sample of DMSO/PBS was a negative control. A sample of Aqualyx® was a positive control. In the table, 24M is phosphatidylcholine 25 mg/ml plus deoxycholate 12 mg/and 25N is C 50/DC24; these were positive controls. The numbers in the table refer to averaged ethidium numbers. The percentages represent the relative kill rate for each cell type when rated against the adipocyte kill rate for that compound. All tissue types were tested on the same plate against adipocytes in order to standardize results.
(§4) Over seventy compounds of the embodiments were tested for adipocytolysis, then for tissue preference. A consistent assay with multiplex information was a calcein/ethidium bromide assay that assesses cell viability and cell death simultaneously. Cell viability was checked using the Countess device. All plates were inoculated with 100 microliters of the appropriate cell types. A 6 well repeat was used to verify results. Cell types used included cultured human adult derived adipocytes, dermal fibroblasts, skeletal muscle cells, and endothelial cells (Cell Applications, Inc., San Diego, Calif.). Human peripheral nerve cells (Innoprot, Spain) were also used.
(§5) Compounds were formulated using a DMSO/PBS excipient. A 10 mg/ml concentration was used. One hundred microliters of test compound was inserted into 6 wells of 5 cell types, placed in adjacent rows. The plates were incubated for 4 hours. Indicator was added to each well, and plates were read at 45 minutes using a fluorescence spectrophotometer (Molecular Devices, Sunnyvale, Calif.).

[1] = system: adipocytes over nerve cells, dermal cells, muscle cells, and endothelial cells; assay: LIVE/DEAD assay, tissue preference (adipocytes versus other cell types); format: cell-based, human; conditions: for tissue specificity / tissue preference: Example 2, FIGS. 5-8 and table, 2 and 5 hours in FIGS. 6-8; for tissue preference for adipocytes: Example 2
adipocytes = assay: LIVE/DEAD calcein/ethidium bromide assay, adipocyte kill rate; format: cell-based, human; conditions: for Adipocyte, averaged ethidium numbers: kill rate (ethidium), all tissue types on the same plate; for adipocyte kill rate / aggressiveness: Example 2, FIGS. 5-8 and table
Method: as §1, §2, §3, §4, §5

endothelial cells = assay: LIVE/DEAD calcein/ethidium bromide assay, endothelial cell kill rate; format: cell-based, human; conditions: for Endothelial, averaged ethidium numbers: kill rate (ethidium), same plate as adipocytes; for Endothelial, relative kill rate rated against the adipocyte kill rate: percentage in brackets
Method: as §1, §2, §3, §4, §5

skeletal muscle cells = assay: LIVE/DEAD calcein/ethidium bromide assay, muscle cell kill rate; format: cell-based, human; conditions: for Muscle, averaged ethidium numbers: kill rate (ethidium), same plate as adipocytes; for Muscle, relative kill rate rated against the adipocyte kill rate: percentage in brackets
Method: as §1, §2, §3, §4, §5

nerve cells = format: cell-based; conditions: for Nerve, averaged ethidium numbers: kill rate (ethidium), same plate as adipocytes; for Nerve, relative kill rate rated against the adipocyte kill rate: percentage in brackets; for toxicity to nerve cells: Example 2, FIGS. 6-8
Method: as §1, §2, §3, §4, §5

Structure (SMILES) | Dermis, averaged ethidium numbers (dermal fibroblasts) | Dermis, relative kill rate rated against the adipocyte kill rate (dermal fibroblasts) [%] | tissue specificity / tissue preference [1] | Adipocyte, averaged ethidium numbers (adipocytes) | Endothelial, averaged ethidium numbers (endothelial cells) | Endothelial, relative kill rate rated against the adipocyte kill rate (endothelial cells) [%] | Muscle, averaged ethidium numbers (skeletal muscle cells) | Muscle, relative kill rate rated against the adipocyte kill rate (skeletal muscle cells) [%] | Nerve, averaged ethidium numbers (nerve cells) | Nerve, relative kill rate rated against the adipocyte kill rate (nerve cells) [%] | adipocyte kill rate / aggressiveness (adipocytes) | toxicity to dermis / dermal fibroblasts (dermal fibroblasts) | toxicity to nerve cells (nerve cells) | tissue preference for adipocytes [1]
O=C(O)[C@H]1Cc2c([nH]c3ccccc23)[C@@H](c2ccc(O)cc2O)N1 [Compound 78, (1R,3R)-1-(2,4-dihydroxyphenyl)-2,3,4,9-tetrahydro-1H-pyrido [3,4-b]indole-3-carboxylic acid] | 8.3 | 28 | high specificity | 29.5 | 9.8 | 33 | 8.7 | 29 |  |  |  |  |  | 
O=Cc1ccc2[nH]ccc2c1 [Compound 3, 1H-indole-5-carbaldehyde] | 26.5 | 62 | moderate preference | 42.5 | 25 | 59 | 25 | 59 | 26 | 61 |  |  |  | 
O=Cc1c[nH]c2ccccc12 [Compound 1, 1H-indole-3-carbaldehyde] | 56 |  | no preference | 53 | 98 |  | 82 |  | 60 |  |  |  |  | 
O=C(O)c1ccc2[nH]ccc2c1 [Compound 28, 1H-indole-5-carboxylic acid] |  |  | high specificity |  |  |  |  |  |  |  | high kill rate |  |  | 
O=Cc1cccc2[nH]ccc12 [Compound 5, 1H-indole-4-carbaldehyde] | 17 | 47 |  | 36 | 16 | 44 | 27 | 75 | 17 | 47 |  | late dermal spike | more nerve preservation | about 50%
O=Cc1cccc2cc[nH]c12 [Compound 4, 1H-indole-7-carbaldehyde] | 79 | 62 | shows specificity for adipocyte killing | 127 | 86 | 63 | 99 | 78 | 66 | 52 | less aggressive |  |  | about 50%
O=C(O)c1cccc2[nH]ccc12 [Compound 27, 1H-indole-4-carboxylic acid] |  |  | high specificity |  |  |  |  |  |  |  |  |  |  | 
O=Cc1c[nH]c2c3c(ccc12)CCC3 [Compound 7, 1,6,7,8-tetrahydrocyclopenta[g]indole-3-carbaldehyde] | 103 | 53 | not tissue preference | 196 | 69 | 35 | 119 | 61 | 56 | 30 |  |  |  | 
O=Cc1c[nH]c2cc(OCc3ccccc3)ccc12 [Compound 44, 6-(benzyloxy)-1H-indole-3-carbaldehyde] | 134 | 61 | not as specific as the other compounds tested in this group | 218 | 129 | 59 | 172 | 79 | 103 | 47 |  |  |  | about 50%
O=C(O)CCCc1c[nH]c2ccccc12 [Compound 10, 4-(1H-indol-3-yl) butanoic acid] | 10 | 22 |  | 45 | 16.5 | 37 | 13 | 29 | 12 | 27 | most aggressive |  |  | 
O=C(O)c1cc2cc(Br)ccc2[nH]1 [Compound 40, 5-bromo-1H-indole-2-carboxylic acid] | 33 | 27 | most strongly tissue preferential; also recorded: tissue specificity at two time points; also recorded: high specificity | 123 | 40 | 33 | 36 | 29 | 61 | 50 | moderate |  |  | 
O=C(O)c1c[nH]c2ccccc12 [Compound 30, 1H-indole-3-carboxylic acid] |  |  |  |  |  |  |  |  |  |  |  |  |  | about 50%
O=Cc1c[nH]c2cccc(OCc3ccccc3)c12 [Compound 43, 4-(benzyloxy)-1H-indole-3-carbaldehyde] | 74 | 22 | most strongly tissue preferential | 340 | 92.5 | 27 | 73 | 21 | 58 | 17 | aggressive; also recorded: adipolytic | low kill rate | low kill rate | 
